# US20240115654A1, “INTRAVENOUS ADMINISTRATION OF ENGINEERED ANTIMICROBIAL AMPHIPHILIC PEPTIDES” (priority 2021, published 2024)
# Read-outs that look alike come from different tables or passages of the source. Peptide text beside a SMILES is read from it.
# Excerpt: All subjects who met eligibility criteria were confined to the clinical research unit from […] through Day 3. At admission, physical examination, vital signs, 12 lead ECG and weight were obtained, medical and medication history were updated if necessary, safety blood tests (hematology and chemistry), urinalysis, urine drug screen and an alcohol breath test were repeated and a urine pregnancy test was done for women of childbearing potential.
# At each dose level, there were 2 sentinel subjects, (1 active, 1 placebo), who were dosed at least 48 hours in advance of the other subjects in their respective group. Following review of safety data, including physical examination, vital signs, and review of adverse events from the first 2 subjects, enrolment in the cohort continued.
# A 12-lead ECG was performed on Day 1, within 60 minutes of infusion start (in triplicate), mid-way through the infusion, at the completion of the infusion, 30 minutes after completion of the infusion and at various timepoints following the end of the infusion.
# Vital signs were recorded within 60 minutes pre-dose, at the mid-point of the infusion and post dose vitals were assessed at completion of the infusion, 0.5, 1, 2, 3, 4, 6, 9, 12, 24 and 48 hours post dose, after at least 3 minutes of rest in supine position.
# Subjects returned to the study center 7 days after dosing, for the termination visit. A full physical examination, vital signs and weight were obtained, concomitant medications were updated if necessary, safety blood specimens (haematology and chemistry, PT and aPTT) and urine were collected for urinalysis and urine drug screening. A serum pregnancy test was done for women of childbearing potential and a 12-lead ECG was performed.
# In this study dose limiting toxicity (DLT) was defined as any drug related ≥Grade 3 AEs occurring despite optimal therapeutic interventions (which included but were not limited to allergic/hypersensitivity reactions, dermatological reactions/infusion site reactions, haematological toxicities such as neutropenia, thrombocytopenia and anaemia and clinical chemistry abnormalities) experienced up to Day 7 (Termination Visit).
# (§1) All subjects who received any amount of study drug were included in the safety analysis (Safety population).
# The study was a double blinded, randomized, placebo-controlled study. The placebo administered was 0.9% sodium chloride.
# On Day 1 (day of dosing), subjects were randomly assigned either peptide IV or Placebo IV. At each dose level, there were 2 sentinel subjects, (1 active, 1 placebo), who were dosed at least 48 hours in advance of the other subjects in their respective group. Following review of safety data, including physical examination, vital signs, and review of adverse events from the first 2 subjects, enrolment in the cohort continued. All subjects who met eligibility criteria were confined to the clinical research unit from Day −2 through Day 3. At admission, physical examination, vital signs, 12 lead ECG and weight were obtained, medical and medication history were updated if necessary, safety blood tests (hematology and chemistry), urinalysis, urine drug screen and an alcohol breath test were repeated and a urine pregnancy test was done for women of childbearing potential.
# as §1
# [1] = Cohort 1: 0.05 mg/kg IV 1-hr infusion (N = 6)
# [2] = Cohort 1: 0.05 mg/kg IV 1 hour infusion, subject 001-S008
# [3] = Cohort 4 0.05 mg/kg IV 2-hr infusion, participant 001-S086
smiles,measurement,setting,value
CC(C)[C@H](NC(=O)[C@H](Cc1c[nH]c2ccccc12)NC(=O)[C@H](CCCNC(=N)N)NC(=O)[C@H](CCCNC(=N)N)NC(=O)[C@@H](NC(=O)[C@@H](NC(=O)[C@H](CCCNC(=N)N)NC(=O)[C@@H](NC(=O)[C@@H](NC(=O)[C@H](CCCNC(=N)N)NC(=O)[C@H](CCCNC(=N)N)NC(=O)[C@H](Cc1c[nH]c2ccccc12)NC(=O)[C@@H](NC(=O)[C@H](CCCNC(=N)N)NC(=O)[C@H](CCCNC(=N)N)NC(=O)[C@@H](NC(=O)[C@H](CCCNC(=N)N)NC(=O)[C@H](CCCNC(=N)N)NC(=O)[C@@H](NC(=O)[C@H](Cc1c[nH]c2ccccc12)NC(=O)[C@H](CCCNC(=N)N)NC(=O)[C@@H](N)CCCNC(=N)N)C(C)C)C(C)C)C(C)C)C(C)C)C(C)C)C(C)C)C(C)C)C(=O)N[C@@H](CCCNC(=N)N)C(=O)N[C@@H](CCCNC(=N)N)C(N)=O [SEQ ID NO: 1] (H-RRWVRRVRRVWRRVVRVVRRWVRR-NH2),"Participants With At Least 1 TEAE, occurrences m",[1],7
same,"Participants With At Least 1 Treatment-Related TEAE, n (%)",[1],1 (16.7%)
same,"Participants With At Least 1 Treatment-Related TEAE, occurrences m",[1],1
same,"TEAE Severity Grade 1, m",[1],7
same,"TEAE Severity Grade 1, n (%)",[1],5 (83.3%)
same,"TEAE Severity Grade 2, n (%)",[1],0
same,"TEAE by system organ class: Blood and Lymphatic System Disorders, participants n (%)",[1],0
same,"TEAE by system organ class: Gastrointestinal Disorders, occurrences m",[1],1
same,"TEAE by system organ class: Gastrointestinal Disorders, participants n (%)",[1],1 (16.7%)
same,"TEAE by system organ class: General Disorders and Administration Site Conditions, occurrences m",[1],1
same,"TEAE by system organ class: General Disorders and Administration Site Conditions, participants n (%)",[1],1 (16.7%)
same,"TEAE by system organ class: Infections and Infestations, participants n (%)",[1],0
same,"TEAE by system organ class: Injury, Poisoning, and Procedural Complications, occurrences m",[1],3
same,"TEAE by system organ class: Injury, Poisoning, and Procedural Complications, participants n (%)",[1],3 (30.0%)
same,"TEAE by system organ class: Musculoskeletal and Connective Tissue Disorders, participants n (%)",[1],0
same,"TEAE by system organ class: Nervous System Disorders, occurrences m",[1],2
same,"TEAE by system organ class: Nervous System Disorders, participants n (%)",[1],2 (33.3%)
same,"TEAE by system organ class: Respiratory, Thoracic, and Mediastinal disorders, participants n (%)",[1],0
same,"TEAE by system organ class: Skin and Subcutaneous Tissue Disorders, participants n (%)",[1],0
same,"TEAE by system organ class: Vascular Disorders, participants n (%)",[1],0
same,"TEAE severity Grade 1, occurrences m",[1],7
same,"TEAE severity Grade 1, participants n (%)",[1],5 (83.3%)
same,"TEAE severity Grade 2, participants n (%)",[1],0
same,"TEAE severity Grade 3, participants n (%)",[1],0
same,"TEAE severity Grade 4, participants n (%)",[1],0
same,"TEAE severity Grade 5, participants n (%)",[1],0
same,"Treatment-related TEAE: Abdominal distension, participants n (%)",[1],0
same,"Treatment-related TEAE: Blood and Lymphatic System Disorders, participants n (%)",[1],0
same,"Treatment-related TEAE: Constipation, participants n (%)",[1],0
same,"Treatment-related TEAE: Diarrhea, participants n (%)",[1],0
same,"Treatment-related TEAE: Dizziness, participants n (%)",[1],0
same,"Treatment-related TEAE: Feeling hot, participants n (%)",[1],0
same,"Treatment-related TEAE: Gastrointestinal Disorders, participants n (%)",[1],0
same,"Treatment-related TEAE: General Disorders and Administration Site Conditions, occurrences m",[1],1
same,"Treatment-related TEAE: General Disorders and Administration Site Conditions, participants n (%)",[1],1 (16.7%)
same,"Treatment-related TEAE: Headache, participants n (%)",[1],0
same,"Treatment-related TEAE: Infusion related reaction, participants n (%)",[1],0
same,"Treatment-related TEAE: Infusion site discomfort, participants n (%)",[1],0
same,"Treatment-related TEAE: Infusion site pain, participants n (%)",[1],0
same,"Treatment-related TEAE: Infusion site reaction, participants n (%)",[1],0
same,"Treatment-related TEAE: Infusion site swelling, participants n (%)",[1],0
same,"Treatment-related TEAE: Injury, Poisoning, and Procedural Complications, participants n (%)",[1],0
same,"Treatment-related TEAE: Macule, participants n (%)",[1],0
same,"Treatment-related TEAE: Musculoskeletal and Connective Tissue Disorders, participants n (%)",[1],0
same,"Treatment-related TEAE: Myalgia, participants n (%)",[1],0
same,"Treatment-related TEAE: Nervous system disorders, participants n (%)",[1],0
same,"Treatment-related TEAE: Oropharyngeal pain, participants n (%)",[1],0
same,"Treatment-related TEAE: Orthostatic hypotension, participants n (%)",[1],0
same,"Treatment-related TEAE: Phlebitis, participants n (%)",[1],0
same,"Treatment-related TEAE: Respiratory, Thoracic, and Mediastinal disorders, participants n (%)",[1],0
same,"Treatment-related TEAE: Skin and Subcutaneous Tissue Disorders, participants n (%)",[1],0
same,"Treatment-related TEAE: Thrombocytopenia, participants n (%)",[1],0
same,"Treatment-related TEAE: Vascular Disorders, participants n (%)",[1],0
same,"Treatment-related TEAE: Vessel puncture site erythema, occurrences m",[1],1
same,"Treatment-related TEAE: Vessel puncture site erythema, participants n (%)",[1],1 (16.7%)
same,"Treatment-related TEAE: Vessel puncture site pain, participants n (%)",[1],0
same,"Treatment-related TEAE: Vomiting, participants n (%)",[1],0
same,Infusion related reaction: End Date/Time,[2],Day 1/6 hours
same,Infusion related reaction: Severity Grade,[2],Grade 1
same,"Number of Participants Reporting at least: One Dose-Limiting Toxicity, n (%)",Cohort 2: […] IV 1-hr infusion (N = 6),0
same,"Number of Participants Reporting at least: One Dose-Limiting Toxicity, n (%)",Cohort 3: […] IV 1-hr infusion (N = 5),0
same,"Number of Participants Reporting at least: One Dose-Limiting Toxicity, n (%)",Cohort 3b: […] IV 2-hr infusion (N = 6),0
same,Severity of event: Localized IRR at right arm and shoulder ache,[3],Grade 1
same,Severity of event: Myalgia,[3],Grade 1
same,participants with IRRs,"Cohort 4, 0.5 mg/kg over 2 hours in 250 mL",3
same,"IRRs, events","Cohort 4, 0.5 mg/kg over 2 hours in 250 mL, all Grade 1, no study drug interruption",4
same,"Number of Participants Reporting at least: Onc TEAE Leading to Study Withdrawal, n (%)",Cohort 4: 0.5 mg/kg IV 2-hr infusion (N = 6),0
